# In US5869524A, “Indene inhibitors of COX-2” (American Home Products Corporation, priority 1997, dated 1999):
# Assays:
# COX-2 = settings: cited from earlier work; for inhibition of COX-1 and COX-2, selectivity in words: literature
# [1] = Futaki et al. 1993; cited from earlier work
# rhCOX-2 = target: T1, rhCOX-2 (Homo sapiens, UniProt P35354); test: Inhibition of rhCOX-2 (PGF2α by EIA, microsomal human recombinant enzyme); format: biochemical; settings: value in parentheses = IC50; 30 min preincubation, 30 μM arachidonic acid, 37° C., pH 7.8; read-out: % inh of rhCOX-2 (IC50)
# T1 construct: made in house; host or cells: Sf9 or CHO cells (microsomal preparation)
# T1 sequence (P35354 18-604): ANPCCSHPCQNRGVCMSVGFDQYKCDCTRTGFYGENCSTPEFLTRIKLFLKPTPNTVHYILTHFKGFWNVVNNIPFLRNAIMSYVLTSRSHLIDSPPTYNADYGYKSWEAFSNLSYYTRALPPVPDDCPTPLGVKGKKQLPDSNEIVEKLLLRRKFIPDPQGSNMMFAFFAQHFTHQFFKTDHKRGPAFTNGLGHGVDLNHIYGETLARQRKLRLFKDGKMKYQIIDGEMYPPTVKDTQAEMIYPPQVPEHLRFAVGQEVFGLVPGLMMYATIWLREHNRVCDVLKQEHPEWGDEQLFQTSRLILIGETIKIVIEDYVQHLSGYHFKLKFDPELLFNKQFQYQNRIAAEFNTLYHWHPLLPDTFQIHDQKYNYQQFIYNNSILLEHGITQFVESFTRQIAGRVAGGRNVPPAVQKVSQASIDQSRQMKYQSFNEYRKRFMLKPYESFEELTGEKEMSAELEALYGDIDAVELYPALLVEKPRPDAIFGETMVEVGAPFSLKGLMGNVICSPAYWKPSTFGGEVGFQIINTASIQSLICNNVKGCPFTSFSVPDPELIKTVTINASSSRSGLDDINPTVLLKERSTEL
# Method: A representative compound of this invention was evaluated for inhibition of COX-2 and COX-1 enzymes as follows. Human COX-1 and COX-2 cDNAs were cloned from human monocytes, untreated and LPS-treated respectively, by RT-PCR using oligonucleotide primers based on published hCOX-1 and hCOX-2 sequences (Jones et al., J. Biol. Chem., 268, 9049 (1993)). The cDNAs were then transfected into either Sf9 or CHO cells and subsequently converted into a microsomal preparation as described by Glaser et al (Eur. J. Pharmacol. 281, 107-111 (1995)). The microsomal human recombinant enzymes were diluted with buffer (100 mM Tris, pH 7.8 at 37° C.) containing 0.5 mM phenol (964 μl total volume). The enzyme preparations were preincubated with vehicle (DMSO) or compounds in DMSO (1% DMSO in final assay) for 30 min at 37° C. Excess hematin was added 1 min prior to initiation of reaction ([…] final hematin) with 30 μM arachidonic acid (sodium salt). […]
# The reaction was incubated for 35 sec (maximum level of PGH2 accumulation as determined from time course studies), and terminated by addition of […] of SnCl2 (1 mg/ml) in 0.1N HCl. PGH2 is quantitatively converted to PGF2a by this reaction (50% efficiency of total conversion). […] Combined ethyl acetate extracts were dried under N2 (g) and redissolved in EIA buffer (2.0 ml), and PGF2α was quantified by EIA.
# Alzheimer's disease = settings: Rogers et al. 1993; cited from earlier work
structure (smiles),measurement,setting,value
CCc1cccc2c3c([nH]c12)C(CC)(CC(=O)O)OCC3 (stereo not shown) [etodolac],selectivity for inhibition of COX-2,"COX-2; fold, reported by Glaser et al. 1995",tenfold
CS(=O)(=O)Nc1ccc([N+](=O)[O-])cc1OC1CCCCC1 [N-(2-cyclohexyloxy-4-nitrophenyl)methanesulfonamide],antiinflammatory effect,[1],effective antiinflammatory
same,gastric side effects,[1],lacks gastric side effects
same,"inhibition of COX-1 and COX-2, selectivity in words",COX-2,selective COX-2 inhibitor
"CSc1ccc(/C=C2/C(C)=C(CC(=O)C3=C(O)COC3=O)c3cc(F)ccc32)cc1 [Example 1, (Z)-3-[[5-Fluoro-2-methyl-1-[[4-(methylthio)phenyl]methylene]-1H-inden-3-yl]acetyl]-4-hydroxy-2(5H)-furanone]",IC50,rhCOX-2,27 nM
COc1ccc2c(c1)c(CC(=O)O)c(C)n2C(=O)c1ccc(Cl)cc1 [Indomethacin],treatment of Alzheimer's disease,Alzheimer's disease,useful in the treatment of Alzheimer's disease
same,"inhibition of COX-1 and COX-2, selectivity in words",COX-2,relatively non-selective inhibitor of COX-1 and COX-2
